Measured values from patent US20240050428A1 (Cullgen (Shanghai), Inc., priority 2020, published 2024).
Like-named read-outs stand apart in the source and are kept apart here.

What was measured:
MOLM-13 cells = assay: Cell viability assay (CellTiter-Glo) in MOLM-13 cells, alone or with gilteritinib; type: cell-based; settings: Homo sapiens, MOLM-13 cells, CellTiter-Glo
MV4;11 cells = assay: Cell viability assay (CellTiter-Glo) in MV4;11 cells, alone or with gilteritinib; type: cell-based; settings: Homo sapiens, MV4;11 cells, CellTiter-Glo, read-out: MV4
[1] = MOLM-13, 72 h, compound alone (without gilteritinib), three days, read-out: MOLM-13 IC50
[2] = MOLM-13, 72 h, compound with gilteritinib 20 nM, three days, read-out: MOLM-13 IC50 gilteritinib
[3] = MV4-11, 72 h, compound alone (without gilteritinib), three days, 11 IC50
[4] = MV4-11, 72 h, compound with gilteritinib 10 nM, three days, 11 IC50 gilteritinib
[5] = MOLM-13, 72 h, with gilteritinib 20 nM, three days, read-out: MOLM-13 IC50 gilteritinib
[6] = MV4-11, 72 h, with gilteritinib 10 nM, three days, 11 IC50 gilteritinib
[7] = 72 h, compound alone (without gilteritinib), three days, read-out: MOLM-13 IC50
[8] = 72 h, compound with gilteritinib 20 nM, three days, read-out: MOLM-13 IC50 gilteritinib
[9] = 72 h, compound alone (without gilteritinib), three days, 11 IC50
[10] = 72 h, compound with gilteritinib 10 nM, three days, 11 IC50 gilteritinib

IC50 (MOLM-13 cells; [1])	IC50 (MOLM-13 cells; [2])	IC50 (MV4;11 cells; [3])	IC50 (MV4;11 cells; [4])	IC50 (MOLM-13 cells; [5])	IC50 (MV4;11 cells; [6])	SMILES	other results
10 to 100 nM	100 to 1000 nM	> 1000 nM	> 1000 nM			O=C1CCC(N2C(=O)c3ccc(NC[C@H]4C[C@H](n5ccc(C6CC6)n5)C4)cc3C2=O)C(=O)N1 (stereo partly drawn) [GS-588, 5-(((trans-3-(3-Cyclopropyl-1H-pyrazol-1-yl)cyclobutyl)methyl)amino)-2-(2,6-dioxopiperidin-3-yl)isoindoline-1,3-dione]	
						O=C1CCC(N2C(=O)c3ccc(NCCCCCC(=O)N4CCC(n5cc(C6CNc7ccccc7N6)cn5)CC4)cc3C2=O)C(=O)N1 (stereo not shown) [GS-008, 2-(2,6-Dioxopiperidin-3-yl)-5-((6-oxo-6-(4-(4-(1,2,3,4-tetrahydroquinoxalin-2-yl)-1H-pyrazol-1-yl)piperidin-1-yl)hexyl)amino)isoindoline-1,3-dione]	IC50 (MOLM-13 cells; MOLM-13, 72 h, with 20 nM gilteritinib, 3 days, read-out: MOLM-13 IC50 gilteritinib): 14 nM; IC50 (MOLM-13 cells; MOLM-13, 72 h, without gilteritinib, 3 days, read-out: MOLM-13 IC50): 78 nM; IC50 (MV4;11 cells; MV4-11, 72 h, with 10 nM gilteritinib, 3 days, 11 IC50 gilteritinib): 27 nM; IC50 (MV4;11 cells; MV4-11, 72 h, without gilteritinib, 3 days, 11 IC50): 449 nM
> 1000 nM		100 to 1000 nM		> 1000 nM	> 1000 nM	O=C1CCC(N2C(=O)c3ccc(NC[C@H]4C[C@H](n5cc(-c6cccc(N7CCOCC7)n6)cn5)C4)cc3C2=O)C(=O)N1 (stereo partly drawn) [GS-216, 2-(2,6-Dioxopiperidin-3-yl)-5-(((trans-3-(4-(6-morpholinopyridin-2-yl)-1H-pyrazol-1-yl)cyclobutyl)methyl)amino)isoindoline-1,3-dione]	
> 1000 nM		100 to 1000 nM		10 to 100 nM	10 to 100 nM	Cc1nn([C@H]2C[C@H](CCCNc3ccc4c(c3)C(=O)N(C3CCC(=O)NC3=O)C4=O)C2)cc1-c1cccc(N2CCOCC2)n1 (stereo partly drawn) [GS-244, 2-(2,6-Dioxopiperidin-3-yl)-5-((3-(trans-3-(3-methyl-4-(6-morpholinopyridin-2-yl)-1H-pyrazol-1-yl)cyclobutyl)propyl)amino)isoindoline-1,3-dione]	
> 1000 nM		10 to 100 nM		10 to 100 nM	10 to 100 nM	O=C1CCC(N2C(=O)c3ccc(NC[C@H]4C[C@H](n5cc(-c6cnc7ccc(CN8CCOCC8)cc7n6)c(C6CC6)n5)C4)cc3C2=O)C(=O)N1 (stereo partly drawn) [GS-067, 5-(((trans-3-(3-Cyclopropyl-4-(7-(morpholinomethyl)quinoxalin-2-yl)-1H-pyrazol-1-yl)cyclobutyl)methyl)amino)-2-(2,6-dioxopiperidin-3-yl)isoindoline-1,3-dione]	
100 to 1000 nM	10 to 100 nM	100 to 1000 nM	10 to 100 nM			O=C1CCC(N2C(=O)c3ccc(NCCCCCCn4cc(-c5cnc6ccccc6n5)c(C(F)(F)F)n4)cc3C2=O)C(=O)N1 (stereo not shown) [GS-550, 2-(2,6-Dioxopiperidin-3-yl)-5-((6-(4-(quinoxalin-2-yl)-3-(trifluoromethyl)-1H-pyrazol-1-yl)hexyl)amino)isoindoline-1,3-dione]	
> 1000 nM	100 to 1000 nM	> 1000 nM	> 1000 nM			O=C1CCC(N2C(=O)c3ccc(NCCCC4CC(n5cc(N6CCOCC6)cn5)C4)cc3C2=O)C(=O)N1 (stereo not shown) [GS-437, 2-(2,6-dioxopiperidin-3-yl)-5-((3-(3-(4-morpholino-1H-pyrazol-1-yl)cyclobutyl)propyl)amino)isoindoline-1,3-dione]	
10 to 100 nM		100 to 1000 nM		< 10 nM	10 to 100 nM	O=C1CCC(N2C(=O)c3ccc(NCCCCCCc4ncc(-c5cnc6ccccc6n5)s4)cc3C2=O)C(=O)N1 (stereo not shown) [GS-386, 2-(2,6-Dioxopiperidin-3-yl)-5-((6-(5-(quinoxalin-2-yl)thiazol-2-yl)hexyl)amino)isoindoline-1,3-dione]	
						O=C1CCC(N2C(=O)c3ccc(NCCC4CC(Cn5cc(-c6cnc7ccccc7n6)cn5)C4)cc3C2=O)C(=O)N1 (stereo not shown) [GS-558, 2-(2,6-Dioxopiperidin-3-yl)-5-((2-(3-((4-(quinoxalin-2-yl)-1H-pyrazol-1-yl)methyl)cyclobutyl)ethyl)amino)isoindoline-1,3-dione]	IC50 (MOLM-13 cells; [7]): > 1000 nM; IC50 (MOLM-13 cells; [8]): 10 to 100 nM; IC50 (MV4;11 cells; [9]): 100 to 1000 nM; IC50 (MV4;11 cells; [10]): 100 to 1000 nM
> 1000 nM	100 to 1000 nM	100 to 1000 nM	100 to 1000 nM			O=C1CCC(N2C(=O)c3ccc(NC4CC5(C4)CC(n4cc(-c6cnc7ccccc7n6)cn4)C5)cc3C2=O)C(=O)N1 (stereo not shown) [GS-527, 2-(2,6-Dioxopiperidin-3-yl)-5-((6-(4-(quinoxalin-2-yl)-1H-pyrazol-1-yl)spiro[3.3]heptan-2-yl)amino)isoindoline-1,3-dione]	
10 to 100 nM	< 10 nM	10 to 100 nM	< 10 nM			O=C1CCC(N2C(=O)c3ccc(NC[C@H]4C[C@H](n5cc(-c6ccc7c(n6)CCC7)c(C6CC6)n5)C4)cc3C2=O)C(=O)N1 (stereo partly drawn) [GS-616, 5-(((trans-3-(3-Cyclopropyl-4-(6,7-dihydro-5H-cyclopenta[b]pyridin-2-yl)-1H-pyrazol-1-yl)cyclobutyl)methyl)amino)-2-(2,6-dioxopiperidin-3-yl)isoindoline-1,3-dione]	
						O=C1CCC(N2Cc3cc(OCCCCCC(=O)N4CCN(c5ccccc5)CC4)ccc3C2=O)C(=O)N1 (stereo not shown) [GS-329, 3-(1-Oxo-5-((6-oxo-6-(4-phenylpiperazin-1-yl)hexyl)oxy)isoindolin-2-yl)piperidine-2,6-dione]	IC50 (MOLM-13 cells; [7]): > 1000 nM; IC50 (MOLM-13 cells; 72 h, with gilteritinib 20 nM, three days, read-out: MOLM-13 IC50 gilteritinib): 100 to 1000 nM; IC50 (MV4;11 cells; [9]): > 1000 nM; IC50 (MV4;11 cells; 72 h, with gilteritinib 10 nM, three days, 11 IC50 gilteritinib): > 1000 nM
100 to 1000 nM	< 10 nM	10 to 100 nM	< 10 nM			CN1CC2CC1CN2c1ccc2ncc(-c3cn([C@H]4C[C@H](CCCNc5ccc6c(c5)C(=O)N(C5CCC(=O)NC5=O)C6=O)C4)nc3C3CC3)nc2c1 (stereo partly drawn) [GS-594, 5-((3-(trans-3-(3-Cyclopropyl-4-(7-((1R,4R)-5-methyl-2,5-diazabicyclo[2.2.1]heptan-2-yl)quinoxalin-2-yl)-1H-pyrazol-1-yl)cyclobutyl)propyl)amino)-2-(2,6-dioxopiperidin-3-yl)isoindoline-1,3-dione]	
> 1000 nM		> 1000 nM		> 1000 nM	> 1000 nM	O=C1CCC(N2Cc3c(Nc4ccnc(Nc5ccc(CN6CCC(n7cc(-c8cnc9cccc(Br)c9n8)cn7)CC6)cc5)n4)cccc3C2=O)C(=O)N1 (stereo not shown) [GS-030, 3-(4-((2-((4-((4-(4-(8-Bromoquinoxalin-2-yl)-1H-pyrazol-1-yl)piperidin-1-yl)methyl)phenyl)amino)pyrimidin-4-yl)amino)-1-oxoisoindolin-2-yl)piperidine-2,6-dione]	
						O=C1CCC(N2C(=O)c3ccc(NCCCCC(F)(F)Cn4cc(-c5cnc6ccccc6n5)cn4)cc3C2=O)C(=O)N1 (stereo not shown) [GS-551, 5-((5,5-Difluoro-6-(4-(quinoxalin-2-yl)-1H-pyrazol-1-yl)hexyl)amino)-2-(2,6-dioxopiperidin-3-yl)isoindoline-1,3-dione]	IC50 (MOLM-13 cells; [7]): > 1000 nM; IC50 (MOLM-13 cells; [8]): 10 to 100 nM; IC50 (MV4;11 cells; [9]): > 1000 nM; IC50 (MV4;11 cells; [10]): 100 to 1000 nM
100 to 1000 nM		100 to 1000 nM		100 to 1000 nM	> 1000 nM	O=C1CCC(N2C(=O)c3ccc(NC[C@H]4C[C@@H](n5cc(-c6cnc7ccc(N8CCOCC8)cc7n6)cn5)C4)cc3C2=O)C(=O)N1 (stereo partly drawn) [GS-189, 2-(2,6-Dioxopiperidin-3-yl)-5-(((cis-3-(4-(7-morpholinoquinoxalin-2-yl)-1H-pyrazol-1-yl)cyclobutyl)methyl)amino)isoindoline-1,3-dione]	
						O=C1CCC(N2Cc3cc(NC(=O)Cc4cccc(N5CCC(c6ccccc6)CC5)c4)ccc3C2=O)C(=O)N1 (stereo not shown) [GS-501, N-(2-(2,6-Dioxopiperidin-3-yl)-1-oxoisoindolin-5-yl)-2-(3-(4-phenylpiperidin-1-yl)phenyl)acetamide]	IC50 (MOLM-13 cells; [7]): < 10 nM; IC50 (MOLM-13 cells; [8]): < 10 nM; IC50 (MV4;11 cells; [9]): < 10 nM; IC50 (MV4;11 cells; [10]): < 10 nM
> 1000 nM		> 1000 nM		100 to 1000 nM	10 to 100 nM	O=C1CCC(N2Cc3c(NC4CCCC(Nc5ccnc(N6CCC(n7cc(-c8cnc9ccccc9n8)cn7)CC6)n5)C4)cccc3C2=O)C(=O)N1 (stereo not shown) [GS-119, 3-(1-Oxo-4-((3-((2-(4-(4-(quinoxalin-2-yl)-1H-pyrazol-1-yl)piperidin-1-yl)pyrimidin-4-yl)amino)cyclohexyl)amino)isoindolin-2-yl)piperidine-2,6-dione]	
100 to 1000 nM		100 to 1000 nM		10 to 100 nM	10 to 100 nM	Cc1nn([C@H]2C[C@H](CNc3ccc4c(c3)C(=O)N(C3CCC(=O)NC3=O)C4=O)C2)cc1-c1cnc2ccccc2n1 (stereo partly drawn) [GS-200, 2-(2,6-Dioxopiperidin-3-yl)-5-(((trans-3-(3-methyl-4-(quinoxalin-2-yl)-1H-pyrazol-1-yl)cyclobutyl)methyl)amino)isoindoline-1,3-dione]	
